Assay results as given in article PMC8194939, “Investigation on the characteristics and mechanisms of ACE inhibitory peptides by a thorough analysis of all 8000 tripeptides via binding free energy calculation” (Food Science & Nutrition, 2021).
Where a SMILES comes first, the peptide text is derived from it.

biological target: T1, ACE from rabbit lung (Oryctolagus cuniculus, UniProt P12822); test: Assay of ACE inhibitory activity (HHL substrate, RP-HPLC of hippuric acid)
T1 sequence (P12822 34-1310): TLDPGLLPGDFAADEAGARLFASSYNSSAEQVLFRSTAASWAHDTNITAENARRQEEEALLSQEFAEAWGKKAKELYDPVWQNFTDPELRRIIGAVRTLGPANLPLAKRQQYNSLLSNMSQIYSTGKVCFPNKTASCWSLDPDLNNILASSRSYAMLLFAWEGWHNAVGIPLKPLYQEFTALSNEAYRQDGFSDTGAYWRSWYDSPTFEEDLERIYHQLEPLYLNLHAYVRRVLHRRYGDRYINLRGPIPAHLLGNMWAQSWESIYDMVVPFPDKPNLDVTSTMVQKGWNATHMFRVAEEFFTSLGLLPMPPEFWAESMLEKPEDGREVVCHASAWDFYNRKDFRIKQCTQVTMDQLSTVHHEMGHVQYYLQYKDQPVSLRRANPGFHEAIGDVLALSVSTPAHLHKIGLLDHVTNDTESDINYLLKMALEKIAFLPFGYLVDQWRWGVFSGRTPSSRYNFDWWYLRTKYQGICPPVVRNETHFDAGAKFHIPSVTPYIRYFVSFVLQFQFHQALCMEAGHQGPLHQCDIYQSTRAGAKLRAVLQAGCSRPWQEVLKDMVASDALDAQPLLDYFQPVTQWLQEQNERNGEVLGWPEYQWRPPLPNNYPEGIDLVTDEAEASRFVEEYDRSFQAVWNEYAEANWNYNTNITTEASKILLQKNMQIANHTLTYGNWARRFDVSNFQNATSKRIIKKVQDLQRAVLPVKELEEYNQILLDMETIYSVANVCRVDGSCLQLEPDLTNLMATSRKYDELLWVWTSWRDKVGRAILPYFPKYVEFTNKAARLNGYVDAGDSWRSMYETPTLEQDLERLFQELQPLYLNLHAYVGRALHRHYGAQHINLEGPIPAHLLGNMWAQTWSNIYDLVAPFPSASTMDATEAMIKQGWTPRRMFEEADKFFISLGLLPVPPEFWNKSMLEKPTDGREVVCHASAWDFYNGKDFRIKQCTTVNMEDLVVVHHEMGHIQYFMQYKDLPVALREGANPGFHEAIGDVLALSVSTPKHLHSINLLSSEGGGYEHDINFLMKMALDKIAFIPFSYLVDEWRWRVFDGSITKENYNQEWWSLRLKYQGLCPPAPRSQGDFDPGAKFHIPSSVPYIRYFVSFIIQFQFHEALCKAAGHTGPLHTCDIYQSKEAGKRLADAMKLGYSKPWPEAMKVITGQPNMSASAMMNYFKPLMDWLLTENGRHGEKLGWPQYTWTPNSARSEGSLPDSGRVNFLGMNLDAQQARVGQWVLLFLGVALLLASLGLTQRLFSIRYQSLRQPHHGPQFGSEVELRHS
Description: ACE from rabbit lung and hippuryl‐histidyl‐leucine (HHL) were sourced from Sigma Chemical Co. (St. Louis).
Briefly, 20 μL of inhibitory peptides at different concentrations and 20 μL of 5 mM HHL solution were preincubated at 37°C for 5 min in 90 μL of buffer A (50 mM HEPES, 300 mM NaCl, pH 8.3). Next, 20 μL of ACE solution (0.04 U/mL) was added to trigger the reaction. After incubation at 37°C for 1 hr, the reaction was terminated by adding 50 μL of 1 M HCl. Next, 10 μL of the mixture was separated through RP‐HPLC (e2679, Waters) using an XBridge C18 column (4.6 mm × 150 mm, 5 μm, Waters). […] Hippuric acid was monitored at 228 nm. Triplicate tests were performed for each sample. […] For comparative purposes, the IC50 value of captopril was obtained using this methodology.

**Q.** For NCCCC[C@H](N)C(=O)N[C@@H](Cc1ccc(O)cc1)C(=O)N[C@@H](Cc1ccc(O)cc1)C(=O)O [KYY] (H-Lys-Tyr-Tyr-OH), which IC50 is on record?
**A.** 20.5 ± 4.05 µM

**Q.** For N=C(N)NCCC[C@H](NC(=O)[C@@H](N)Cc1c[nH]c2ccccc12)C(=O)N[C@@H](Cc1ccc(O)cc1)C(=O)O [WRY] (H-Trp-Arg-Tyr-OH), which IC50 is on record?
**A.** 5.86 ± 0.73 µM

**Q.** N[C@@H](Cc1c[nH]c2ccccc12)C(=O)N[C@@H](Cc1c[nH]c2ccccc12)C(=O)N[C@@H](Cc1c[nH]c2ccccc12)C(=O)O [WWW] (H-Trp-Trp-Trp-OH) was tested. Which IC50 did it give?
**A.** 7.3 ± 2.11 µM

**Q.** With NCC(=O)NCC(=O)NCC(=O)O [GGG] (H-Gly-Gly-Gly-OH) as the compound, how does the IC50 read?
**A.** > 5000 µM

**Q.** With N[C@@H](CC(=O)O)C(=O)NCC(=O)NCC(=O)O [DGG] (H-Asp-Gly-Gly-OH) as the compound, how does the IC50 read?
**A.** > 5000 µM

**Q.** NC(=O)CC[C@H](NC(=O)[C@@H](N)Cc1c[nH]c2ccccc12)C(=O)N[C@@H](Cc1c[nH]c2ccccc12)C(=O)O [WQW] (H-Trp-Gln-Trp-OH) was tested. Which IC50 did it give?
**A.** 11.8 ± 1.79 µM

**Q.** For N=C(N)NCCC[C@H](NC(=O)[C@@H](N)Cc1c[nH]c2ccccc12)C(=O)N[C@@H](Cc1ccccc1)C(=O)O [WRF] (H-Trp-Arg-Phe-OH), which IC50 is on record?
**A.** 21.8 ± 2.5 µM
